In one experiment the target is T1, AAK1 (Homo sapiens, UniProt Q2M2I8).
T1 construct: to maximize the representation of endogenous proteins; endogenous in cells
Briefly: Kinobeads two-dose competition binding: AAK1.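 As to all read-outs here: kinobeads competition pulldown from cell lysate, compound preincubated 45 min at 4 °C, bead-bound protein measured by label-free mass spectrometry against DMSO vehicle control.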 As to conditions: for CATDS: sheet CATDS matrix 2, Gene Name AAK1; for potency estimated from few doses: read-out: Kinobeads Drugmatrix - all: apparent Kd, AAK1.

Another experiment addresses ABL1 (Homo sapiens, UniProt P00519). Description: Kinobeads two-dose competition binding: ABL1. To be noted: sheet CATDS matrix 2; Gene Name ABL1.
The target in a further experiment is T2, ACOX1 (Homo sapiens, UniProt Q15067).
T2 construct: endogenous in cells
T2 sequence (Q15067 1-660): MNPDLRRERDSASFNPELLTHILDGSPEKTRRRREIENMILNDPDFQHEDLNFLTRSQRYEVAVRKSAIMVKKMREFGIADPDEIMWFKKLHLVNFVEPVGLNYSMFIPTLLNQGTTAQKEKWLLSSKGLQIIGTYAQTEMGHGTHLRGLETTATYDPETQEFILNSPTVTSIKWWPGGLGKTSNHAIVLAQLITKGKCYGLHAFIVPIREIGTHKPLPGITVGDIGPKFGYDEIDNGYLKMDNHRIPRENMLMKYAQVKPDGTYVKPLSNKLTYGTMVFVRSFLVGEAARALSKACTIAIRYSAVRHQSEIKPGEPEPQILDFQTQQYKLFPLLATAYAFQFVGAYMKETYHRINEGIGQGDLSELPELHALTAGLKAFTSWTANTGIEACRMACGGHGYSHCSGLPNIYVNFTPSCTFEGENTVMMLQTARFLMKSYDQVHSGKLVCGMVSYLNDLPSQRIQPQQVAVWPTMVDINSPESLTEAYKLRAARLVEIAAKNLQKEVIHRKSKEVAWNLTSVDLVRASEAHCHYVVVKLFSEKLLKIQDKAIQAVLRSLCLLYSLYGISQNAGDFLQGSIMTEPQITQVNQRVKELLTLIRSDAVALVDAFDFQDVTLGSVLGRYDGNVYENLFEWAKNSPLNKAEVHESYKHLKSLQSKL
Briefly: Kinobeads two-dose competition binding: ACOX1.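 Also: competition of compounds with immobilized broad-spectrum kinase inhibitor beads in cell lysate at 100 and 1,000 nM, 45 min at 4 °C, bead-bound protein quantified by label-free MS versus DMSO.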 As to conditions: sheet CATDS matrix 2; Gene Name ACOX1.

The target of a further experiment is T3, ABL2 (Homo sapiens, UniProt P42684).
T3 construct: endogenous in cells
Briefly: Kinobeads two-dose competition binding: ABL2. To be noted: sheet CATDS matrix 2; Gene Name ABL2.

A further experiment has as its target T4, ACAD11 (Homo sapiens, UniProt Q709F0).
T4 construct: endogenous in cells
T4 sequence (Q709F0 1-780): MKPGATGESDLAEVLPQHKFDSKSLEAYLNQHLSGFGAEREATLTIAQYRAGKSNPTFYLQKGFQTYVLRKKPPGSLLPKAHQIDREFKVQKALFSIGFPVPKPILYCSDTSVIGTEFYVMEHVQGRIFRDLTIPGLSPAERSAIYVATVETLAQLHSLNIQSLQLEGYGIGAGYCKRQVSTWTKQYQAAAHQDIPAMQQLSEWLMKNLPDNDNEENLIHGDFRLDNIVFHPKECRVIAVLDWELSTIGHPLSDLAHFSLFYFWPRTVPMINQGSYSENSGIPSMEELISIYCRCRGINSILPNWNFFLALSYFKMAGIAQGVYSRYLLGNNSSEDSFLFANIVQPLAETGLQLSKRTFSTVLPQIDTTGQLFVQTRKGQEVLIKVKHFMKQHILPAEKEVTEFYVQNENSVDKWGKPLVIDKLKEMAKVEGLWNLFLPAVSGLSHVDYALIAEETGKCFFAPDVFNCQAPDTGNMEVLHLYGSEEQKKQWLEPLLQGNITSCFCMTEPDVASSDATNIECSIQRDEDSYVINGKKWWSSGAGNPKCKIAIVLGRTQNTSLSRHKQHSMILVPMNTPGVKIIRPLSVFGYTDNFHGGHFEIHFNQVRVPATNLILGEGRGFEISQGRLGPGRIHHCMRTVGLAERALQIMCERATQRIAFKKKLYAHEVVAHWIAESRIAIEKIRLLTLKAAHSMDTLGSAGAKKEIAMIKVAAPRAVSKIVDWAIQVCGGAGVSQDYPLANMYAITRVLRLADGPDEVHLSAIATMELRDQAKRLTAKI
Briefly: Kinobeads two-dose competition binding: ACAD11. To be noted: sheet CATDS matrix 2; Gene Name ACAD11.

[1] abbreviates: sheet "Kinobeads Drugmatrix - all", unit inferred, same values below 1000 recur in sheet "nanomolar".

Read-outs that look alike come from different tables or passages of the source.

T3 sequence (P42684 whole entry): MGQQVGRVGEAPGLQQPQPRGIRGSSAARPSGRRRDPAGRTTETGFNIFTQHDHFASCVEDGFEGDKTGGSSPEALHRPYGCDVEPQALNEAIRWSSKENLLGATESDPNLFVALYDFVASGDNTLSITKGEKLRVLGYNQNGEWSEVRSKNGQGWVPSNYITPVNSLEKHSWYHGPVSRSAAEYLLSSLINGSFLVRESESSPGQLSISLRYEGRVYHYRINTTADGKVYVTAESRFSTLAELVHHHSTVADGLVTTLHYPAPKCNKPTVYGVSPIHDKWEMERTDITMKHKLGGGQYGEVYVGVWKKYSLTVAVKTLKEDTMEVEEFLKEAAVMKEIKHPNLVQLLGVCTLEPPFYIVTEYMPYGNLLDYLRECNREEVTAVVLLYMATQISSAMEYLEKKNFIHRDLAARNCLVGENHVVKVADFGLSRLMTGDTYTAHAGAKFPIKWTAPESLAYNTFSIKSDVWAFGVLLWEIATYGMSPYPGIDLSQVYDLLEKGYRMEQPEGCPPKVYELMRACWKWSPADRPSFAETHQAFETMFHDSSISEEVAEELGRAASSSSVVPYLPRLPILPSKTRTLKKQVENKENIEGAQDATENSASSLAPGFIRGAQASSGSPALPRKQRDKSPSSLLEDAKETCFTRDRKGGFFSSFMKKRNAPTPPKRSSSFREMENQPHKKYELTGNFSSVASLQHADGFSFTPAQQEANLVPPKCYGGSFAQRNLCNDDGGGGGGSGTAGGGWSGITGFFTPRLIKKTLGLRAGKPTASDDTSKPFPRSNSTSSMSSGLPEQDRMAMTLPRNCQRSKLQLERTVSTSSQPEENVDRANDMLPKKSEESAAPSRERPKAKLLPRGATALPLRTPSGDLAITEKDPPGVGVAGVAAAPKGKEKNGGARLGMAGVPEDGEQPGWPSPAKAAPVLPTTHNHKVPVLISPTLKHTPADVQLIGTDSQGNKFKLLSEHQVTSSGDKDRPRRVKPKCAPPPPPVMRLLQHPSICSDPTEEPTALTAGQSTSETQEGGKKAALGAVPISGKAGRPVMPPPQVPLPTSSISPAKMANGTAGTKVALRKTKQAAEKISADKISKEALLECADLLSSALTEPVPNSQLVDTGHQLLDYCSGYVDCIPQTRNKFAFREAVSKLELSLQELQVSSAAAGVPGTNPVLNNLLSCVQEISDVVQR
T1 sequence (Q2M2I8 whole entry): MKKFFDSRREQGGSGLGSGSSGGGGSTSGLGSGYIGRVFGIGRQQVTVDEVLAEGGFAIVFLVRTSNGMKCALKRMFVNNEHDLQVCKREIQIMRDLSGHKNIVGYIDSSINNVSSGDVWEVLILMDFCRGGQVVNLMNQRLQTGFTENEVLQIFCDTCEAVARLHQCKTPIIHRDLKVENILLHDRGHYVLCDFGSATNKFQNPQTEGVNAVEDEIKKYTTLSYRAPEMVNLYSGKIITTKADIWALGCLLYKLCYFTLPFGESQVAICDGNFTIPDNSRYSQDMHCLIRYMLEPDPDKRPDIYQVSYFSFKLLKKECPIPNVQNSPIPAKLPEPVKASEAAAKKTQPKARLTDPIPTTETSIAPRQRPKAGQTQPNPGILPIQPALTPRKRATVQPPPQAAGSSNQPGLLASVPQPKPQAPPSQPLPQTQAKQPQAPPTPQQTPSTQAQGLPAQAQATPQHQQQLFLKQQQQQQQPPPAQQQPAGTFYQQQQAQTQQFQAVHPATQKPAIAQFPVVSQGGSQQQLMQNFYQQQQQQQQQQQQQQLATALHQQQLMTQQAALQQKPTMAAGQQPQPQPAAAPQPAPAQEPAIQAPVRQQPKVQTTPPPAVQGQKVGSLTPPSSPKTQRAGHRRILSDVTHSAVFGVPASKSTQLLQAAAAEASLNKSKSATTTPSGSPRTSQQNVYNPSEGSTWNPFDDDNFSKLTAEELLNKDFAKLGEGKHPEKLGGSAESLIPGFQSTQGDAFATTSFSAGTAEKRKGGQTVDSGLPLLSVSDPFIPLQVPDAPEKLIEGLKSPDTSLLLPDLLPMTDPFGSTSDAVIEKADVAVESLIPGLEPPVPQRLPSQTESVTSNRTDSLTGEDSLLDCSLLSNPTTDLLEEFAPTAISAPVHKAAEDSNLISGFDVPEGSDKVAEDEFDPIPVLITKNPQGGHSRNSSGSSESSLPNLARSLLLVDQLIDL
ABL1, sequence (P00519 28-1130 limits assumed): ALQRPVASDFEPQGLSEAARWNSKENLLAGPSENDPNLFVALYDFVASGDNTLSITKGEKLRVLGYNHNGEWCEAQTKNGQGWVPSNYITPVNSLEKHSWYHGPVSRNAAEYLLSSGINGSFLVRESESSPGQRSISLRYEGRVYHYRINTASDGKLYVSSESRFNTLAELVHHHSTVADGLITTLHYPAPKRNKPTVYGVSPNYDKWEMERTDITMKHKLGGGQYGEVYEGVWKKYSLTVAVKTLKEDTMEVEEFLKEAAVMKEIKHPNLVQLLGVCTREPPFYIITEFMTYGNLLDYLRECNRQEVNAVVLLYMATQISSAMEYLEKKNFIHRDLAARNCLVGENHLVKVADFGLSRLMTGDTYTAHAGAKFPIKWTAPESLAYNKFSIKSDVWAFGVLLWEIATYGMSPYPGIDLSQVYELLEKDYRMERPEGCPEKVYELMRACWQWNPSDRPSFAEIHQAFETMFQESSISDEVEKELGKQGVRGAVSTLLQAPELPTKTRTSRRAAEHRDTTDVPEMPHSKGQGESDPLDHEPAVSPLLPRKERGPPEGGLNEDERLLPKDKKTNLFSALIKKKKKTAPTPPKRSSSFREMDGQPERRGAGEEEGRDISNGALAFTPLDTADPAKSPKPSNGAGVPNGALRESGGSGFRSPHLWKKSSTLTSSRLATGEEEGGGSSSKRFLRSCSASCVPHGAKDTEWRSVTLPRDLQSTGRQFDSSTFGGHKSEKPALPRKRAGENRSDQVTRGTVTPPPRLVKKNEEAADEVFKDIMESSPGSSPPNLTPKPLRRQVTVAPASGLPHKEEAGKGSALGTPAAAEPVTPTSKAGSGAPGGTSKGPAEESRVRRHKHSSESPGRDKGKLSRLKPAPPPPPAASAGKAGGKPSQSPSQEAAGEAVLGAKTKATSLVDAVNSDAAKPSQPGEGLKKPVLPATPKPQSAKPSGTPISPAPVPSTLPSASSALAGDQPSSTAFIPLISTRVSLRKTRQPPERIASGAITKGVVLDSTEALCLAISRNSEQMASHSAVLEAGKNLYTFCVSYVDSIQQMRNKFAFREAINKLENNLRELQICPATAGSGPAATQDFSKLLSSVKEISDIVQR

For the compound `CCN1CCN(Cc2ccc(C(=O)Nc3ccc(C)c(Oc4ccc5c(c4)CC(=O)N5)c3)cc2C(F)(F)F)CC1` [DDR1-in-1], the CATDS on AAK1, on ABL1, at ACOX1, at ABL2 and on ACAD11 was 0 throughout.
Consider `O=c1cc(N2CCOCC2)nc2n(Cc3cccc4ccccc34)ccn12` [GSK2333389A], for which the CATDS at AAK1, at ABL1, at ACOX1, on ABL2 and at ACAD11 was 0 in each case.
Regarding `C[C@@H]1CCCCN1c1cc(-c2ccc3c(N)n[nH]c3c2)nc(N)n1` [GSK2258759A], the CATDS on AAK1, at ABL1, on ACOX1, on ABL2 and at ACAD11 was 0 in each case.
Take `CC(C)N1CCN(Cc2cnc(-c3cc(-c4cccc5[nH]ccc45)cc4[nH]ncc34)o2)CC1` [GSK2269557]: the CATDS on AAK1, at ABL1, on ACOX1, on ABL2 and at ACAD11 was 0 each time.
Regarding `CC(C)C(=O)N[C@@H]1CCN(C(=O)Nc2nc3c(s2)-c2nc(-c4ccccc4Cl)ncc2CC3)C1` [BI00047804], the CATDS at AAK1, on ABL1, at ACOX1, at ABL2 and on ACAD11 was 0 each time.
Turning to `COc1cc(Nc2cnc(C#N)c(O[C@H](C)CN(C)C)n2)ncc1-c1cnn(C)c1` [CCT244747], the CATDS on AAK1, on ABL1, on ACOX1, on ABL2 and on ACAD11 was 0 each time.
As to `CNS(=O)(=O)c1ccc(N(C)C)c(Nc2ncnc3cc(OC)c(OC)cc23)c1` [GSK114], the CATDS on AAK1, at ABL1, on ACOX1, on ABL2 and at ACAD11 was 0 each time.
Take `O=C(Nc1c(F)cccc1F)c1cc(C(=O)c2ccccc2F)c[nH]1` [GSK1326180A]: the CATDS on AAK1, on ABL1, on ACOX1, at ABL2 and on ACAD11 was 0 each time.
Take `Cc1cccc(-c2cc(Nc3ccncc3)c3ccccc3n2)n1` [GSK223675A]: the CATDS at AAK1, on ABL1, on ACOX1, on ABL2 and on ACAD11 was 0 each time.
Turning to `NCC(NC(=O)c1cc(-c2cccnc2)c(-c2ccnc3[nH]ccc23)s1)c1ccccc1` (stereo not shown) [GSK1323434A], the CATDS on AAK1, at ABL1, at ACOX1, on ABL2 and at ACAD11 was 0 each time.
As to `Cc1c(Cn2ccn3c(=O)nc(N4CCOCC4)cc23)cccc1C(F)(F)F` [GSK2336394A], the CATDS at AAK1, on ABL1, on ACOX1, at ABL2 and at ACAD11 was 0 in each case.
`CNc1nccc(-c2ccc3c(N)n[nH]c3c2)n1` [GSK2206003A]: at AAK1 (setting [1]), the potency estimated from few doses is 108 nM. Also, the CATDS at AAK1 was found to be 0.118; on ABL1 it was 0; on ACOX1, 0; at ABL2 it was 0; on ACAD11 it was 0.
In the case of `Cc1c(Cn2c(C)c(C)n3c(=O)cc(N4CCOCC4)nc23)cccc1C(F)(F)F` [GSK2328680_KCGS], the CATDS at AAK1, on ABL1, at ACOX1, at ABL2 and on ACAD11 was 0 in each case.
`Cc1c(Cn2ccn3c(=O)cc(N4CCOCC4)nc23)cccc1C(F)(F)F` [GSK2289044B]: the CATDS at AAK1, on ABL1, at ACOX1, at ABL2 and at ACAD11 was 0 each time.
Consider `Nc1nccc(-c2ccc3c(N)n[nH]c3c2)n1` [GSK1034945A], for which the potency estimated from few doses at AAK1 (setting [1]) is 194 nM. The CATDS was 0.08249 on AAK1; 0 on ABL1; 0 at ACOX1; 0 at ABL2; 0 on ACAD11.
For `O=C(O[C@H]1CN[C@H](C#Cc2cc3ncnc(Nc4ccc5c(cnn5Cc5ccccc5)c4)c3s2)C1)N1CCOCC1` [GSK200398A_KCGS], the CATDS at AAK1, on ABL1, at ACOX1, on ABL2 and at ACAD11 was 0 in each case.
In the case of `C[C@@H]1CCNC(=O)c2cc3ccc(C(=O)Nc4nc5ccccc5n4CCCN(C)C)cc3n21` [BI00645435], the CATDS on AAK1, on ABL1, on ACOX1, at ABL2 and at ACAD11 was 0 throughout.
Turning to `CC(C)NCC(Cc1ccccc1)NC(=O)c1cc(Br)c(-c2ccnc3[nH]ccc23)s1` (stereo not shown) [GSK1383281A], the CATDS at AAK1, at ABL1, on ACOX1, on ABL2 and at ACAD11 was 0 each time.
On to `COc1cc2c(cc1OC)C(=C(Nc1ccccc1)c1cccc(CN)c1)C(=O)N2` [BIBF0846CL], for which the CATDS at AAK1, at ABL1, on ACOX1, at ABL2 and at ACAD11 was 0 throughout.
`COc1ccc(S(=O)(=O)NC2CCN(c3cc(C)nc(Nc4cccc(C#N)c4)n3)CC2)cc1` [GSK1653539A]: the CATDS at AAK1, at ABL1, at ACOX1, on ABL2 and on ACAD11 was 0 in each case.
In the case of `CNC(=O)c1c(F)cccc1Nc1nc(Nc2cc3c(cc2OC)CCN3C(=O)CN(C)C)nc2[nH]ccc12` [GSK1838705], the CATDS on AAK1, on ABL1, on ACOX1, at ABL2 and on ACAD11 was 0 each time.
In the case of `NCC(NCc1ccc(-c2ccnc3[nH]ccc23)s1)c1ccccc1` (stereo not shown) [GSK1321565A], the potency estimated from few doses at AAK1 (setting [1]) was 820 nM. Further, the CATDS at AAK1 stood at 0.2016; at ABL1, 0; at ACOX1, 0; on ABL2 it was 0; at ACAD11, 0.
On to `NC[C@H](CC1CCCCC1)NC(=O)c1ccc(-c2ccnc3[nH]ccc23)s1` [GSK1581428A], for which the potency estimated from few doses at AAK1 was 54.5 nM. The CATDS at AAK1 is 0.07203; on ABL1, 0; on ACOX1 it was 0; on ABL2 it was 0; at ACAD11, 0.
For `CC1=C(C(=O)Nc2ccc3[nH]ncc3c2)C(c2ccc(F)cc2)NC(=O)N1` (stereo not shown) [GSK180736A], the CATDS at AAK1, on ABL1, on ACOX1, on ABL2 and at ACAD11 was 0 in each case.

The values above are taken from publication PMC11062922 (Nature Chemical Biology, 2023).
